Biological target: T1, recombinant human cytosolic PEPCK (Homo sapiens, UniProt P35558)
T1 sequence (P35558 1-622): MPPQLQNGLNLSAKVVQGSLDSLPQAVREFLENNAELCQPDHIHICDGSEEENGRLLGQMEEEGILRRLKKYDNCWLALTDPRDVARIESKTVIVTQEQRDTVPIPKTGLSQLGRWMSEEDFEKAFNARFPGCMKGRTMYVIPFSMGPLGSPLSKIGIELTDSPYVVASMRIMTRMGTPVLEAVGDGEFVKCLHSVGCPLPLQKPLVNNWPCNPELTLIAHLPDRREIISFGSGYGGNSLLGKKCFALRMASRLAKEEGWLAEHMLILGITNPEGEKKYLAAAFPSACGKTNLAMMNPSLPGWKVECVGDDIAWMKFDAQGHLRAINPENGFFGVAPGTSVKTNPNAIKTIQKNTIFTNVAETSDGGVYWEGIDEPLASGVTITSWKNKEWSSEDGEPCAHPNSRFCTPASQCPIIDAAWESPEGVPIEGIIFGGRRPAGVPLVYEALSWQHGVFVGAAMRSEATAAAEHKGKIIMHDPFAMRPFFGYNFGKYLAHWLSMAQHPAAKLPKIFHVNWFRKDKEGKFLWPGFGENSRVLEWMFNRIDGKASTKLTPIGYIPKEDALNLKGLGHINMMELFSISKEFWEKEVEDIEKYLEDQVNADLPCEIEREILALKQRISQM
Experiment: PEPCK enzyme assay (coupled pyruvate kinase/lactate dehydrogenase, absorbance at 340)
Assay type: biochemical
Conditions: recombinant human cytosolic GST-PEPCK; GTP and OAA at 3 fold and 10 fold Km; final DMSO 10%; room temperature, twenty minutes; read-out: In vitro IC50
Experimental: E. coli cells expressing GST-PEPCK were suspended in 5 volumes of lysis buffer (50 mM Tris-hydroxymethyl aminomethyl (TRIS), 150 mM sodium chloride (NaCl), 10 mM ethylene-diametetraacetic acid (EDTA), 5 mM dithiothreitol(DTT), 1% Nonidet P-40, pH 7.4) in the presence of protease inhibitors, incubated with lysozyme at 200 micrograms/ml for 30 min. at room temperature, and sonicated 4×30 seconds at 4 degrees C. After centrifugation at 12,000×g for 20 min. to remove insoluble material, the supernatant was loaded onto glutathione Sepharose (Pharmacia), washed with lysis buffer followed by washing with lysis buffer in the absence of NP-40. GST-PEPCK was eluted with the same buffer containing 20 mM glutathione. The eluted protein was concentrated and dialyzed against 25 mM Hepes(N-[2-hydroxyethyl]piperazine-N′[2-ethanesulfonic acid), 150 mM NaCl, 2.5 mM EDTA, 5 mM DTT, 30% glycerol, pH 7.4, and stored at −20 ° C.
The inhibitory effect of the compounds of the present invention on PEPCK enzymatic activity was determined using recombinant human cytosolic PEPCK, expressed and purified from E.coli as a GST-fusion. Guanosine triphosphate (GTP) and manganese dependent PEPCK enzyme activity catalyzed the decarboxylation of oxalacetate leading to the formation of guanosine diphosphate (GDP) and phosphoenol pyruvate (PEP). This reaction is coupled to pyruvate kinase and lactate dehydrogenase catalyzed reactions and the overall reaction rate determined by measuring the change in absorbance at 340 nm (Chang, H. C. and Lane M. D., J. Biol.Chem. 241:2413–2420, 1966). The following modifications were made to the protocol: 2.5 μg of recombinant, human cytosolic glutathione-S-transferase (GST)-PEPCK was added to a reaction mixture at room temperature which contained 0.3 mM GTP, 0.3 mM oxaloacetate (OAA), 3 mM magnesium chloride (MgCl2), 0.075 mM manganese chloride (MnCl2), 30 mM potassium phosphates (KPO4), pH 7.6, 1 mM dithiothreitol (DTT), 0.2 mM adenosine diphosphate (ADP), 1 mM nicotinamide adenine dinucleotide, reduced form (NADH), 0.9 Units/ml each of pyruvate kinase and lactate dehydrogenase and 1 mg/ml bovine serum albumin (BSA). Test compounds were added such that final concentration of DMSO was 10%. Reactions were run for twenty minutes.
Km values for GTP and OAA were determined according to Michelis-Menton conditions as described in Cornish-Bowden (Fundamentals of Enzyme Kinetics, 1995) in essentially the coupled assay conditions described above. […] Test compounds were added to reactions over a range of concentrations and IC50's were calculated from plots of inhibitor concentration versus enzyme rate. This method of determination of IC50 values is equally applicable to calculations based on PEPCK cellular assay.
The in vitro biological activity of several representative preferred compounds of the present invention in the foregoing PEPCK enzymatic assay is presented in Table 1.

| IC50 | Compound |
| --- | --- |
| 560 nM | CC(=O)Nc1ccc(Cc2nc3c([nH]2)c(=O)n(Cc2ccccc2F)c(=O)n3C[C@@H]2C[C@@H]2C(=O)O)cc1 (relative stereo) [Example 47, 2-[8-(4-Acetylamino-benzyl)-1-(2-fluorobenzyl)-2,6-dioxo-1,2,6,7-tetrahydro-purin-3-ylmethyl]-cyclopropanecarboxylic acid] |
| 550 nM | CN(C(=O)c1ccc(O)nc1)c1ccc(Cc2nc3c([nH]2)c(=O)n(Cc2ccccc2F)c(=O)n3CC2CC2)cc1 [Example 100, N-{4-[3-Cyclopropylmethyl-1-(2-fluorobenzyl)-2,6-dioxo-2,3,6,7-tetrahydro-1H-purin-8-ylmethyl]-phenyl}-6-hydroxy-N-methyl-nicotinamide] |
| 690 nM | CN(C(=O)c1cnn(C)c1)c1ccc(Cc2nc3c([nH]2)c(=O)n(Cc2ccccc2F)c(=O)n3CC2CC2)cc1 [Example 112, 1-Methyl-1H-pyrazole-4-carboxylic acid {4-[3-cyclopropylmethyl-1-(2-fluorobenzyl)-2,6-dioxo-2,3,6,7-tetrahydro-1H-purin-8-ylmethyl]-phenyl}-methyl-amide] |
| 440 nM | CC(=O)Nc1ccc(C(=O)N(C)c2ccc(Cc3nc4c([nH]3)c(=O)n(Cc3ccccc3F)c(=O)n4CC3CC3)cc2)cn1 [Example 98, 6-Acetylamino-N-{4-[3-cyclopropylmethyl-1-(2-fluorobenzyl)-2,6-dioxo-2,3,6,7-tetrahydro-1H-purin-8-ylmethyl]-phenyl}-N-methyl-nicotinamide] |
| 740 nM | CC(=O)Nc1csc(C)c1C(=O)N(C)c1ccc(Cc2nc3c([nH]2)c(=O)n(Cc2ccccc2F)c(=O)n3CC2CC2)cc1 [Example 113, 4-Acetylamino-2-methyl-thiophene-3-carboxylic acid {4-[3-cyclopropylmethyl-1-(2-fluorobenzyl)-2,6-dioxo-2,3,6,7-tetrahydro-1H-purin-8-ylmethyl]-phenyl}-methyl-amide] |
| 740 nM | Cc1oncc1C(=O)N(C)c1ccc(Cc2nc3c([nH]2)c(=O)n(Cc2ccccc2F)c(=O)n3CC2CC2)cc1 [Example 114, 5-Methyl-isoxazole-4-carboxylic acid {4-[3-cyclopropylmethyl-1-(2-fluorobenzyl)-2,6-dioxo-2,3,6,7-tetrahydro-1H-purin-8-ylmethyl]-phenyl}-methyl-amide] |
| 420 nM | Cc1ccc(C(=O)N(C)c2ccc(Cc3nc4c([nH]3)c(=O)n(Cc3ccccc3F)c(=O)n4CC3CC3)cc2)cn1 [Example 86, N-{4-[3-cyclopropylmethyl-1-(2-fluorobenzyl)-2,6-dioxo-2,3,6,7-tetrahydro-1H-purin-8-ylmethyl]-phenyl}-6,N-dimethyl-nicotinamide] |
| 230 nM | Cc1nn(C)c(C)c1C(=O)N(C)c1ccc(Cc2nc3c([nH]2)c(=O)n(Cc2ccccc2F)c(=O)n3CC2CC2)cc1 [Example 102, 1,3,5-Trimethyl-1H-pyrazole-4-carboxylic acid {4-[3-cyclopropylmethyl-1-(2-fluorobenzyl)-2,6-dioxo-2,3,6,7-tetrahydro-1H-purin-8-ylmethyl]-phenyl}-methyl-amide] |
| 190 nM | CCN(C(=O)c1c(C)nn(C)c1C)c1ccc(Cc2nc3c([nH]2)c(=O)n(Cc2ccccc2F)c(=O)n3CC2CC2)cc1 [Example 117, 1,3,5-Trimethyl-1H-pyrazole-4-carboxylic acid {4-[3-cyclopropylmethyl-1-(2-fluorobenzyl)-2,6-dioxo-2,3,6,7-tetrahydro-1H-purin-8-ylmethyl]-phenyl}-ethyl-amide] |
| 440 nM | CN(C(=O)c1ccc(C#N)nc1)c1ccc(Cc2nc3c([nH]2)c(=O)n(Cc2ccccc2F)c(=O)n3CC2CC2)cc1 [Example 92, 6-Cyano-N-{4-[3-cyclopropylmethyl-1-(2-fluorobenzyl)-2,6-dioxo-2,3,6,7-tetrahydro-1H-purin-8-ylmethyl]-phenyl}-N-methyl-nicotinamide] |
| 310 nM | Cc1ccc(C(=O)N(c2ccc(Cc3nc4c([nH]3)c(=O)n(Cc3ccccc3F)c(=O)n4CC3CC3)cc2)C(C)C)cn1 [Example 119, N-{4-[3-Cyclopropylmethyl-1-(2-fluorobenzyl)-2,6-dioxo-2,3,6,7-tetrahydro-1H-purin-8-ylmethyl]-phenyl}-N-isopropyl-6-methyl-nicotinamide] |
| 570 nM | Cc1nocc1C(=O)N(C)c1ccc(Cc2nc3c([nH]2)c(=O)n(Cc2ccccc2F)c(=O)n3CC2CC2)cc1 [Example 109, 3-Methyl-isoxazole-4-carboxylic acid {4-[3-cyclopropylmethyl-1-(2-fluorobenzyl)-2,6-dioxo-2,3,6,7-tetrahydro-1H-purin-8-ylmethyl]-phenyl}-methyl-amide] |
| 280 nM | CN(C(=O)c1cccnc1N)c1ccc(Cc2nc3c([nH]2)c(=O)n(Cc2ccccc2F)c(=O)n3CC2CC2)cc1 [Example 93, 2-Amino-N-{4-[3-cyclopropylmethyl-1-(2-fluorobenzyl)-2,6-dioxo-2,3,6,7-tetrahydro-1H-purin-8-ylmethyl]-phenyl}-N-methyl-nicotinamide] |
| 500 nM | Cc1nn(C)cc1C(=O)N(C)c1ccc(Cc2nc3c([nH]2)c(=O)n(Cc2ccccc2F)c(=O)n3CC2CC2)cc1 [Example 107, 1,3-Dimethyl-1H-pyrazole-4-carboxylic acid {4-[3-cyclopropylmethyl-1-(2-fluorobenzyl)-2,6-dioxo-2,3,6,7-tetrahydro-1H-purin-8-ylmethyl]-phenyl}-methyl-amide] |
| 370 nM | Cc1ncccc1C(=O)N(C)c1ccc(Cc2nc3c([nH]2)c(=O)n(Cc2ccccc2F)c(=O)n3CC2CC2)cc1 [Example 95, N-{4-[3-Cyclopropylmethyl-1-(2-fluorobenzyl)-2,6-dioxo-2,3,6,7-tetrahydro-1H-purin-8-ylmethyl]-phenyl}-2,N-dimethyl-nicotinamide] |
| 390 nM | Cc1ccc(C(=O)N(CC2CCC2)c2ccc(Cc3nc4c([nH]3)c(=O)n(Cc3ccccc3F)c(=O)n4CC3CCC3)cc2)cn1 [Example 121, N-Cyclobutylmethyl-N-{4-[3-cyclobutylmethyl-1-(2-fluorobenzyl)-2,6-dioxo-2,3,6,7-tetrahydro-1H-purin-8-ylmethyl]-phenyl}-6-methyl-nicotinamide] |
| 630 nM | CN(C(=O)c1cccnc1O)c1ccc(Cc2nc3c([nH]2)c(=O)n(Cc2ccccc2F)c(=O)n3CC2CC2)cc1 [Example 101, N-{4-[3-Cyclopropylmethyl-1-(2-fluorobenzyl)-2,6-dioxo-2,3,6,7-tetrahydro-1H-purin-8-ylmethyl]-phenyl}-2-hydroxy-N-methyl-nicotinamide] |
| 930 nM | CC(=O)Nc1ccc(Cc2nc3c([nH]2)c(=O)n(Cc2ccccc2F)c(=O)n3CC2CC2)cc1 [Example 42, N-{4-[3-Cyclopropylmethyl-1-(2-fluorobenzyl)-2,6-dioxo-2,3,6,7-tetrahydro-1H-purin-8-ylmethyl]-phenyl}-acetamide] |
| 930 nM | CN(C(=O)c1sccc1C(N)=O)c1ccc(Cc2nc3c([nH]2)c(=O)n(Cc2ccccc2F)c(=O)n3CC2CC2)cc1 [Example 115, Thiophene-2,3-dicarboxylic acid 3-amide 2-({4-[3-cyclopropylmethyl-1-(2-fluorobenzyl)-2,6-dioxo-2,3,6,7-tetrahydro-1H-purin-8-ylmethyl]-phenyl}-methyl-amide)] |

Source: patent US7135475B2, “Amide substituted xanthine derivatives” (Hoffmann-La Roche Inc., priority 2002, dated 2006)
